Measured values: patent publication US8324238B2
Read-outs that look alike come from different tables or passages of the source.

What was measured:
male ICR mice = assay: Mouse toxicity test, intraperitoneal (Example 6)
Experimental: Male ICR mice are divided into six dose groups (five mice per group), and then fasted (no food is given except water) for 24 hours. […] A median lethal dose (LD50), an approximate lethal dose, and a maximum tolerate dose are determined after observation for 14 days.
Necropsy and histopathology findings are also performed.

[1] = Solubility of various salts in distilled water, converted into free base (Example 4B); conditions: room temperature, converted into the corresponding solubilities of free base
[2] = tested on: Bone Marrow Cells of Male Mice; assay: Micronucleus test in bone marrow cells of male mice (Example 14); conditions: 70 mg/kg intraperitoneally
Experimental: 70 mg/kg intraperitoneally administration of CPA is used as a positive control dosage (seven male ICR mice are used in each group). Twenty-four hours after single injection administration, all animals are sacrificed and the changes on the number of polychromatic erythrocyte with one or more nuclei (MNPCE) are evaluated with the changes on the total white blood cells and difference counts on the neutrophils and lymphocytes on the prepared blood. In addition, PCE/(PCE+normochromatic erythrocytes (NCE)) ratio are calculated by counting 500 erythrocytes for detecting possibility of cytotoxicity.

[3] = See Korean Patent No. 10-566346; cited from earlier work
[4] = tested on: gram positive bacteria, gram negative bacteria, methicillin resistant bacteria, penicillin resistant bacteria, and the known quinolone resistant strains; conditions: cited from earlier work
[5] = Solubility of various salt forms in various solvents at room temperature (Example 4A); assay type: physicochemical; conditions: read-out: Salt Form Solubility
[6] = in vivo
[7] = mouse, in vivo
Experimental: Seven week old male mice (ICR CD-1), 28-31 g of body weight upon receipt, are used.
Blood is sampled at 0.25, 0.5, 1, 1.5, 2, 3, 4, and 5 hours after dosing by orbital puncture.

[8] = Pharmacokinetic study after intravenous administration in rats (Example 10); conditions: 10 mg/kg i.v. in male SD rats
[9] = male ICR mice, intraperitoneal, 14 days observation
[10] = male, ICR, mouse, in vivo, ip, 14 days
[11] = 24 hours after single injection

In the case of CON=C1CN(c2nc3c(cc2F)c(=O)c(C(=O)O)cn3C2CC2)CC12CNC2 [Formate], the Approximate lethal dose (male ICR mice; [9]) is reported as 500 to 1000 mg/kg, the Median lethal dose (male ICR mice; [9]) is reported as 716.24 mg/kg and the Maximum tolerate dose (male ICR mice; [10]) is reported as 500 mg/kg.
CON=C1CN(c2nc3c(cc2F)c(=O)c(C(=O)O)cn3C2CC2)CC12CNC2 [Methanesulfonate] showed an Approximate lethal dose (male ICR mice; [9]) of 500 to 1000 mg/kg, a Median lethal dose (male ICR mice; [9]) of 716.24 mg/kg and a Maximum tolerate dose (male ICR mice; [10]) of 500 mg/kg.
Fumarate showed a Solubility [1] of 0.63 mg/mL.
Compound Maleate has a Solubility [1] of 0.18 mg/mL.
For Mandelate, the Solubility [1] was 1.01 mg/mL.
Work on CON=C1CN(c2nc3c(cc2F)c(=O)c(C(=O)O)cn3C2CC2)CC12CNC2 [Phosphate] yielded an Approximate lethal dose (male ICR mice; [9]) of 250 to 500 mg/kg, a Median lethal dose (male ICR mice; [9]) of 356.91 mg/kg and a Maximum tolerate dose (male ICR mice; [10]) of 250 mg/kg.
In the case of O=P1(N(CCCl)CCCl)NCCCO1 (stereo not shown) [CPA, cyclophosphamide], the “MNPCEs 2000 PCEs” value [2, 11] is reported as 71.86 ± 10.43, the “PCE(PCE + NCE) ratio” value [2, 11] is reported as 0.36 ± 0.07 and the “Proportions among 100 leukocytes (%) Lymphocytes” value [2, 11] is reported as 75.71 ± 9.20%. The “Proportions among 100 leukocytes (%) Neutrophils” value [2, 11] was 21.71 ± 9.45%, the Total leukocyte numbers [2, 11] was 2.36 ± 0.55 ×10^3 cells mm^3 and the “Change of MNPCE” value ([2]; CPA treated group) was “significant increase of MNPCE”. For the same compound, the “Loss of Locomotion” value ([2]; male ICR mice, single) was 0/7 and the Mortality ([2]; male ICR mice, single) was 0/7.
For CON=C1CN(c2nc3c(cc2F)c(=O)c(C(=O)O)cn3C2CC2)CC12CNC2 [Parent Compound], the Aqueous solubility [3] is given as “low”, the Antimicrobial activity [4] is given as “excellent antimicrobial activity” and the Solubility ([5]; aqueous solution with a pH of 1.2, simulated gastric fluid, pH 1.2, room temperature) is given as 7700 µg/mL. It also gave a Solubility ([5]; aqueous solution with a pH of 6.8, aqueous buffer, pH 6.8, room temperature) of 38 µg/mL and a Solubility ([5]; solvent of pH 4.0, aqueous buffer, pH 4.0, room temperature) of 6490 µg/mL.
In the case of O=C(O)c1ccccc1O [Salicylate], the Solubility [1] is reported as 0.11 mg/mL.
In the case of CON=C1CN(c2nc3c(cc2F)c(=O)c(C(=O)O)cn3C2CC2)CC12CNC2.Cl [Hydrochloride], the Fibrous peritonitis [6] is reported as “severe fibrous peritonitis”, the Approximate lethal dose (male ICR mice; [9]) is reported as 250 to 500 mg/kg and the Maximum tolerate dose (male ICR mice; [9]) is reported as 250 mg/kg. It also gave a Median lethal dose (male ICR mice; [9]) of 481.93 mg/kg, a C last ([7]; iv, 10 mg/kg) of 0.067 µg/mL and a Half-life ([7]; iv, 10 mg/kg) of 1.259 h. The T last ([7]; iv, 10 mg/kg) was 4.0 h, the Half-life ([7]; po, 100 mg/kg) was 2.205 h and the “AUC 0-5 hr” value [8] was 6.070 ± 0.731. The AUC inf [8] was 6.283 ± 0.804 µg·h/mL, the C last [8] was 0.137 ± 0.042 µg/mL and the Half-life [8] was 1.061 ± 0.093 h. The T last [8] was 5.0 ± 0.0 h.
[Mg] [Magnesium] showed a Solubility [1] of 0.02 mg/mL.
